Measurements published in publication PMC6614837 (Nucleic Acids Research, 2019).

How the values were obtained:
[1] = biological target: T1, RNase P holoenzyme from Thermotoga maritima (Thermotoga maritima, UniProt Q9X1H4); experiment: Real-time fluorescence-based (FRET) RNase P activity assay with minihelix (Mh) substrate; assay type: biochemical; settings: for IC50: fluorescent Mh substrate 270 nM, holoenzyme 33 nM, 10% DMSO, 37°C, 400 mM AmOAc, 100 mM MgCl2
T1 construct: made in house
T1 sequence (Q9X1H4 1-117): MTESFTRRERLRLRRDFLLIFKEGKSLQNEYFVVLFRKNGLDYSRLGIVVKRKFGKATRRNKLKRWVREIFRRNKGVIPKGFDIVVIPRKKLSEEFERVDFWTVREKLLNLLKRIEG
Method in brief: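 Reconstituted holoenzyme (P RNA:P protein 1:1.1) at 33 nM with 270 nM minihelix labelled Alexa Fluor 488/BHQ quencher, in buffer H (pH 7.4, 400 mM AmOAc, 100 mM MgCl2), 10% DMSO, 37°C. Cleavage followed as fluorescence increase (ex 485, em 535 nm); initial velocities from linear slopes.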

P RNA = experiment: Gel-based activity assay, bipartite pre-tRNA substrate, P RNA alone; assay type: biochemical, T. maritima; settings: 100 mM AmOAc, 10 mM MgCl2
Experimental: For gel-based activity assays, reactions were prepared as described in the previous section (fluorescence activity assay), incubated for 1–15 min at 37–50°C, then loaded onto a denaturing 7 M urea–20% acrylamide gel in the case of the Mh substrate or 19% acrylamide (40% acrylamide/bisacrylamide 38.5:1.5) for the bipartite pre-tRNA substrate. The activity conditions for the gel reported in Figure 3A, to monitor the cleavage of the holoenzyme and P RNA, were under 100 mM AmOAc and 10 mM MgCl2. The gels (13 × 16 × 0.15 cm) were electrophoresed at 20 V/cm for 2–3 h. UV shadowing or ethidium bromide staining was used to visualize RNA cleavage. Detection of minihelix fluorescence was achieved without staining using a UV lamp with excitation at ∼254 nm.
Figure 3. The inhibitors purpurin and hematein bind to the holoenzyme. (A) Top. […] Bottom. […] (B) The relative affinities of the inhibitors for the P RNA or the holoenzyme differ. Binding sensorgrams obtained by biolayer interferometry (BLI). P RNA or RNase P holoenzyme was immobilized on super streptavidin (SSA) biosensors through a 5′-biotinylated RNA oligonucleotide complementary to a region on the P1 stem of P RNA (see Materials and Methods). […] In contrast, gentian violet binds not only to P RNA but also to the Mh substrate (Supplementary Figure S16). (C) Molecular Dynamics (MD) simulations of RNase P protein in complex with the validated inhibitors. In each panel, semitransparent spheres represent the geometric center, over a 200 ns trajectory, of the corresponding tested compound. The 5′-leader (yellow) is shown for reference purposes only; it was not included in the simulation. Sphere color coding indicates the starting and final positions in blue and red, respectively. […] Purpurin's starting conformation corresponds to that observed in the crystal structure in complex with the P protein (PDB code: 6MAX. See Figure 5).

SMILES | IC50 [1] [µM] | Inhibition of the P RNA reaction (P RNA) | Ki ([1]; competitive inhibition model, varying fluorescent Mh substrate) [µM]
O=C1C=C2CC3(O)COc4c(ccc(O)c4O)C3=C2C=C1O (stereo not shown) [Hematein, 3,4,6a,10-tetrahydroxy-6a,7-dihydroindeno[2,1-c]chromen-9(6H)-one] | 4.5 ± 0.9 | not the P RNA alone | –
O=C1C=CC(=O)c2c(O)cccc21 [Juglone, 5-hydroxy-1,4-naphthoquinone] | 12.8 ± 1.9 | less clear behavior | –
O=C1c2ccccc2C(=O)c2c(O)c(O)cc(O)c21 [Purpurin, 1,2,4-trihydroxyanthraquinone] | 96.2 ± 21.7 | not the P RNA alone | 1.9 ± 0.4
